Molecular target: c-Kit kinase (Homo sapiens (Human), UniProt P10721)
Test: c-Kit biochemical assay (AlphaScreen kinase activity)
Protocol: Assays for biochemical cell-based activity of c-kit kinase are known in the art, for example, as described in U.S. Pat. Nos. 7,498,342 and 7,846,941, the disclosures of which are hereby incorporated by reference as it relates to such assays. The c-kit (or kinase domain thereof) is an active kinase in AlphaScreen. IC50 values are determined with respect to inhibition of c-Kit kinase activity, where inhibition of phosphorylation of a peptide substrate is measured as a function of compound concentration. Compounds to be tested were dissolved in DMSO to a concentration of 30 mM. These were diluted 30 μl into 130 μl of DMSO (4 mM) and 1 μl was added to an assay plate. These were then serially diluted 1:3 (50 μl to 100 μl DMSO) for a total of 8 points. Plates were prepared such that each kinase reaction is 30 μl in 1× kinase buffer (50 mM HEPES, pH 7.2, 5 mM MgCl2, 5 mM MnCl2, 0.01% NP-40, 0.2% BSA), 5% DMSO and 10 μM ATP. Substrate was 100 nM biotin-(E4Y)3 (Open Source Biotech, Inc.). C-kit kinase was at 0.1 ng per sample. After incubation of the kinase reaction for 1 hour at room temperature, 5 μl of donor beads (Streptavidin coated beads (Perkin Elmer Life Science) final concentration 1 μg/ml) in stop buffer (50 mM EDTA in 1× kinase buffer) was added, the sample was mixed and incubated for 30 minutes at room temperature before adding […] of acceptor beads (PY30 coated beads (Perkin Elmer Life Science) final concentration 1 μg/ml) in stop buffer. The samples were incubated for 60 minutes at room temperature and the signal per well was read on AlphaQuest reader. Phosphorylated substrate results in binding of the PY30 antibody and association of the donor and acceptor beads such that signal correlates with kinase activity. The signal vs. compound concentration was used to determine the IC50.
Compounds were also tested using a similar assay with a 10-fold higher ATP concentration. For these samples, compounds to be tested were dissolved in DMSO to a concentration of 30 mM. These were diluted 30 μl into 130 μl of DMSO (4 mM) and 1 μl was added to an assay plate. These were then serially diluted 1:3 (50 μl to 100 μl DMSO) for a total of 8 points. Plates were prepared such that each kinase reaction is 30 μl in 1× kinase buffer (25 mM HEPES, pH 7.5, 2 mM MgCl2, 2 mM MnCl2, 0.01% […], 1 mM DTT, and 0.001% BSA), 5% DMSO and 100 μM ATP. Substrate was 30 nM biotin-(E4Y)10 (Upstate Biotech, Cat#12-440). C-kit kinase was at 1 ng per sample. After incubation of the kinase reaction for 1 hour at room temperature, 5 μl of donor beads (Streptavidin coated beads (Perkin Elmer Life Science) final concentration 10 μg/ml) in stop buffer (25 mM HEPES pH 7.5, 100 mM EDTA, 0.3% BSA) was added, the sample was mixed and incubated for 30 minutes at room temperature before adding 5 μl of acceptor beads (PY30 coated beads (Perkin Elmer Life Science) final concentration 10 μg/ml) in stop buffer. The samples were incubated for 60 minutes at room temperature and the signal per well was read on AlphaQuest or Envision reader (Perkin Elmer Life Science). Phosphorylated substrate results in binding of the PY30 antibody and association of the donor and acceptor beads such that signal correlates with kinase activity. The signal vs. compound concentration was used to determine the IC50.
The c-kit enzyme used in the above assay was either obtained from Cell Signaling Technology (Cat. #7754) or was prepared as follows: A plasmid encoding kit (DNA and encoded protein sequences shown below) was engineered using common polymerase chain reaction (PCR) methods. Complementary DNA cloned from various human tissues were purchased from Invitrogen, and these were used as substrates in the PCR reactions. Specific custom synthetic oligonucleotide primers were designed to initiate the PCR product, and also to provide the appropriate restriction enzyme cleavage sites for ligation with the plasmids. […]

Sequence of c-Kit kinase (P10721 26-976): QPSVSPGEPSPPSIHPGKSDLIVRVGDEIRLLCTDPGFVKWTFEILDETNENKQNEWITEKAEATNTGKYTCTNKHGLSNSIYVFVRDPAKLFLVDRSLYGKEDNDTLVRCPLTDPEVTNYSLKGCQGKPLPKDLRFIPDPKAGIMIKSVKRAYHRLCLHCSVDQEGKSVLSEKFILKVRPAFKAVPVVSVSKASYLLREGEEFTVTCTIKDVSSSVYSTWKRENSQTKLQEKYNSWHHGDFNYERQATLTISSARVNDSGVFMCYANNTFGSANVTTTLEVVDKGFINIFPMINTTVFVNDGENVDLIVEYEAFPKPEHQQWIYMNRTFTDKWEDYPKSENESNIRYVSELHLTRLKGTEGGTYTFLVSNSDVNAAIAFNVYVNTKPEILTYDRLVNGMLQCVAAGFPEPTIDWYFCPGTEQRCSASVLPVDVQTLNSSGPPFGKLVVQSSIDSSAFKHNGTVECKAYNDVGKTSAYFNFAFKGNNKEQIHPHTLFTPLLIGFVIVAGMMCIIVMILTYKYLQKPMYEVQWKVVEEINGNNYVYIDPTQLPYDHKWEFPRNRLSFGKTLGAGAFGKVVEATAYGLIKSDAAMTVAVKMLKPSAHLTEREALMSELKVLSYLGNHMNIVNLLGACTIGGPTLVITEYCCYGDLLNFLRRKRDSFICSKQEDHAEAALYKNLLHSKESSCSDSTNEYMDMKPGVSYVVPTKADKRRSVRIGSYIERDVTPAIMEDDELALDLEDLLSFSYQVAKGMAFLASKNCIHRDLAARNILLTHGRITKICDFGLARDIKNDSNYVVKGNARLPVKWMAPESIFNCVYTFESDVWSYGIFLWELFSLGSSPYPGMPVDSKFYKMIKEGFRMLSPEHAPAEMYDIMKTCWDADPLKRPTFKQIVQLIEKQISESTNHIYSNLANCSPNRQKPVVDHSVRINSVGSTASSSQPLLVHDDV

Row | SMILES | IC50
1 | COc1cc(-c2cc3c(N4CCC(c5nc(C)c(-c6ccc(F)cc6)[nH]5)CC4)ncnc3[nH]2)ccn1 [P-3007, 4-[4-[5-(4-fluorophenyl)-4-methyl-1H-imidazol-2-yl]-1-piperidyl]-6-(2-methoxy-4-pyridyl)-7H-pyrrolo[2,3-d]pyrimidine] | 1 to 10 µM
2 | COc1cc(-c2cc3c(N4CCC(c5nc(C6CC6)c(-c6ccccc6)[nH]5)CC4)ncnc3[nH]2)ccn1 [P-3008, 4-[4-(4-cyclopropyl-5-phenyl-1H-imidazol-2-yl)-1-piperidyl]-6-(2-methoxy-4-pyridyl)-7H-pyrrolo[2,3-d]pyrimidine] | 0.0001 to 1 µM
3 | Fc1ccc(-c2cc3c(N4CCC(c5nc(C6CC6)c(-c6ccccc6)[nH]5)CC4)ncnc3[nH]2)cc1 [P-3009, 4-[4-(4-cyclopropyl-5-phenyl-1H-imidazol-2-yl)-1-piperidyl]-6-(4-fluorophenyl)-7H-pyrrolo[2,3-d]pyrimidine] | 0.0001 to 1 µM
4 | N#Cc1ccc(-c2cc3c(N4CCC(c5nc(C6CC6)c(-c6ccccc6)[nH]5)CC4)ncnc3[nH]2)cc1 [P-3010, 4-[4-[4-(4-cyclopropyl-5-phenyl-1H-imidazol-2-yl)-1-piperidyl]-7H-pyrrolo[2,3-d]pyrimidin-6-yl]benzonitrile] | 0.0001 to 1 µM
5 | Cc1nc(C2CCN(c3ncnc4[nH]c(-c5ccc(F)cc5)cc34)CC2)[nH]c1-c1cccc(OC(F)(F)F)c1 [P-3011, 6-(4-fluorophenyl)-4-[4-[4-methyl-5-[3-(trifluoromethoxy)phenyl]-1H-imidazol-2-yl]-1-piperidyl]-7H-pyrrolo[2,3-d]pyrimidine] | 1 to 10 µM
6 | CCOc1cc(-c2[nH]c(C3CCN(c4ncnc5[nH]c(-c6ccc(C#N)cc6)cc45)CC3)nc2C)ccc1C [P-3095, 4-[4-[4-[5-(3-ethoxy-4-methyl-phenyl)-4-methyl-1H-imidazol-2-yl]-1-piperidyl]-7H-pyrrolo[2,3-d]pyrimidin-6-yl]benzonitrile] | 0.0001 to 1 µM
7 | CCOc1cc(-c2[nH]c(C3CCN(c4ncnc5[nH]c(-c6ccnc(OC)c6)cc45)CC3)nc2C)ccc1C [P-3096, 4-[4-[5-(3-ethoxy-4-methyl-phenyl)-4-methyl-1H-imidazol-2-yl]-1-piperidyl]-6-(2-methoxy-4-pyridyl)-7H-pyrrolo[2,3-d]pyrimidine] | 0.0001 to 1 µM
8 | Cc1nc(C2CCN(c3ncnc4[nH]c(-c5ccnc(C(F)(F)F)c5)cc34)CC2)[nH]c1-c1ccccc1 [P-3097, 4-[4-(4-methyl-5-phenyl-1H-imidazol-2-yl)-1-piperidyl]-6-[2-(trifluoromethyl)-4-pyridyl]-7H-pyrrolo[2,3-d]pyrimidine] | 1 to 10 µM
9 | Cc1nc(C2CCN(c3ncnc4[nH]c(-c5cccc(C(F)(F)F)c5)cc34)CC2)[nH]c1-c1ccccc1 [P-3098, 4-[4-(4-methyl-5-phenyl-1H-imidazol-2-yl)-1-piperidyl]-6-[3-(trifluoromethyl)phenyl]-7H-pyrrolo[2,3-d]pyrimidine] | 1 to 10 µM
10 | CCOc1ccc(-c2[nH]c(C3(C)CCN(c4ncnc5[nH]c(C)cc45)CC3)nc2C)cc1C [P-3099, 4-[4-[5-(4-ethoxy-3-methyl-phenyl)-4-methyl-1H-imidazol-2-yl]-4-methyl-1-piperidyl]-6-methyl-7H-pyrrolo[2,3-d]pyrimidine] | 0.0001 to 1 µM
11 | CCc1ccc(-c2[nH]c(C3(C)CCN(c4ncnc5[nH]c(C)cc45)CC3)nc2C)cc1 [P-3101, 4-[4-[5-(4-ethylphenyl)-4-methyl-1H-imidazol-2-yl]-4-methyl-1-piperidyl]-6-methyl-7H-pyrrolo[2,3-d]pyrimidine] | 0.0001 to 1 µM
12 | COc1ccc(-c2[nH]c(C3(C)CCN(c4ncnc5[nH]c(C)cc45)CC3)nc2C)cc1C [P-3102, 4-[4-[5-(4-methoxy-3-methyl-phenyl)-4-methyl-1H-imidazol-2-yl]-4-methyl-1-piperidyl]-6-methyl-7H-pyrrolo[2,3-d]pyrimidine] | 1 to 10 µM
13 | COc1cc(-c2cc3c(N4CCC(c5nc(C)c(-c6ccc(C)c(OC)c6)[nH]5)CC4)ncnc3[nH]2)ccn1 [P-3104, 4-[4-[5-(3-methoxy-4-methyl-phenyl)-4-methyl-1H-imidazol-2-yl]-1-piperidyl]-6-(2-methoxy-4-pyridyl)-7H-pyrrolo[2,3-d]pyrimidine] | 10 to 300 µM
14 | COc1cc(-c2[nH]c(C3(C)CCN(c4ncnc5[nH]c(C)cc45)CC3)nc2C)ccc1C [P-3105, 4-[4-[5-(3-methoxy-4-methyl-phenyl)-4-methyl-1H-imidazol-2-yl]-4-methyl-1-piperidyl]-6-methyl-7H-pyrrolo[2,3-d]pyrimidine] | 1 to 10 µM
15 | COc1cc(-c2[nH]c(C3CCN(c4ncnc5[nH]c(-c6ccc(C#N)cc6)cc45)CC3)nc2C)ccc1C [P-3106, 4-[4-[4-[5-(3-methoxy-4-methyl-phenyl)-4-methyl-1H-imidazol-2-yl]-1-piperidyl]-7H-pyrrolo[2,3-d]pyrimidin-6-yl]benzonitrile] | 1 to 10 µM
16 | Cc1nc(C2CCN(c3ncnc4[nH]c(-c5cnn(C(F)F)c5)cc34)CC2)[nH]c1-c1ccc(F)cc1 [P-3107, 6-[1-(difluoromethyl)pyrazol-4-yl]-4-[4-[5-(4-fluorophenyl)-4-methyl-1H-imidazol-2-yl]-1-piperidyl]-7H-pyrrolo[2,3-d]pyrimidine] | 0.0001 to 1 µM
17 | COc1ccc(-c2[nH]c(C3CCN(c4ncnc5[nH]c(-c6cnn(C(F)F)c6)cc45)CC3)nc2C)cc1 [P-3108, 6-[1-(difluoromethyl)pyrazol-4-yl]-4-[4-[5-(4-methoxyphenyl)-4-methyl-1H-imidazol-2-yl]-1-piperidyl]-7H-pyrrolo[2,3-d]pyrimidine] | 0.0001 to 1 µM
18 | Cc1nc(C2CCN(c3ncnc4[nH]c(-c5ccc(F)cc5)cc34)CC2)[nH]c1-c1ccc2c(c1)OC(F)(F)O2 [P-3109, 4-[4-[5-(2,2-difluoro-1,3-benzodioxol-5-yl)-4-methyl-1H-imidazol-2-yl]-1-piperidyl]-6-(4-fluorophenyl)-7H-pyrrolo[2,3-d]pyrimidine] | 1 to 10 µM
19 | Cc1nc(C2CCN(c3ncnc4[nH]c(-c5ccc(C#N)cc5)cc34)CC2)[nH]c1-c1ccc2c(c1)OC(F)(F)O2 [P-3110, 4-[4-[4-[5-(2,2-difluoro-1,3-benzodioxol-5-yl)-4-methyl-1H-imidazol-2-yl]-1-piperidyl]-7H-pyrrolo[2,3-d]pyrimidin-6-yl]benzonitrile] | 10 to 300 µM
20 | COc1cc(-c2cc3c(N4CCC(c5nc(C)c(-c6ccc7c(c6)OC(F)(F)O7)[nH]5)CC4)ncnc3[nH]2)ccn1 [P-3111, 4-[4-[5-(2,2-difluoro-1,3-benzodioxol-5-yl)-4-methyl-1H-imidazol-2-yl]-1-piperidyl]-6-(2-methoxy-4-pyridyl)-7H-pyrrolo[2,3-d]pyrimidine] | 10 to 300 µM
21 | COc1ccc(-c2[nH]c(C3CCN(c4ncnc5[nH]c(-c6ccc(C#N)cc6)cc45)CC3)nc2C)cn1 [P-3112, 4-[4-[4-[5-(6-methoxy-3-pyridyl)-4-methyl-1H-imidazol-2-yl]-1-piperidyl]-7H-pyrrolo[2,3-d]pyrimidin-6-yl]benzonitrile] | 0.0001 to 1 µM
22 | Cc1nc(C2CCN(c3ncnc4[nH]c(-c5ccc(C#N)cc5)cc34)CC2)[nH]c1-c1ccc(OC(F)F)cc1 [P-3113, 4-[4-[4-[5-[4-(difluoromethoxy)phenyl]-4-methyl-1H-imidazol-2-yl]-1-piperidyl]-7H-pyrrolo[2,3-d]pyrimidin-6-yl]benzonitrile] | 1 to 10 µM
23 | COc1cccc(-c2[nH]c(C3CCN(c4ncnc5[nH]c(-c6cnn(C(F)F)c6)cc45)CC3)nc2C)c1 [P-3114, 6-[1-(difluoromethyl)pyrazol-4-yl]-4-[4-[5-(3-methoxyphenyl)-4-methyl-1H-imidazol-2-yl]-1-piperidyl]-7H-pyrrolo[2,3-d]pyrimidine] | 0.0001 to 1 µM

From patent publication US9771369B2, “Compounds and methods for kinase modulation, and indications therefor” (Plexxikon Inc., priority 2014, dated 2017)
